Assay results reported in patent US8124766B2, “Inhibitors of diacylglycerol acyltransferase” (Madrigal Pharmaceuticals, Inc., priority 2008, dated 2012).

System: DGAT
Assay: DGAT Phospholipid FlashPlate Assay
Assay type: biochemical
Conditions: DGAT pellet, DAG-coated PL-FlashPlate, 14C-Pal-CoA, 37° C. for 1 hour; read-out: DGAT Inhibition Activity IC50
In short: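 DGAT membrane pellet (0.13 mg protein/ml diluted stock) reacted 1 h at 37 °C with 14C-palmitoyl-CoA (8.3 μM diluted stock) on FlashPlates coated with 500 μM DAG, in Tris-HCl pH 7.5, 100 mM NaCl. Scintillation counts converted to % inhibition; IC50 by 4-parameter logistic fit.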

In order of falling IC50:
1. COCc1c(C(=O)Nc2ccc(N3CCN(C(=O)OC(C)(C)C)CC3)cc2)oc2ccccc12 [Example 79, 4-{4-[(3-Methoxymethyl-benzofuran-2-carbonyl)-amino]-phenyl}-piperazine-1-carboxylic acid tert-butyl ester]  0.94 µM
2. CCOC(=O)N1CCC(Oc2ccc(NC(=O)c3oc4ccccc4c3COC)cc2)C1 (stereo not shown) [Example 81, 3-{4-[(3-Methoxymethyl-benzofuran-2-carbonyl)-amino]-phenoxy}-pyrrolidine-1-carboxylic acid ethyl ester]  0.72 µM
3. CCOC(=O)N1CCC(Oc2ccc(NC(=O)c3oc4c(OCC)c(OCC)ccc4c3C)cc2)C1 (stereo not shown) [Example 80, 3-{4-[(6,7-Diethoxy-3-methyl-benzofuran-2-carbonyl)-amino]-phenoxy}-pyrrolidine-1-carboxylic acid ethyl ester]  0.583 µM
4. COCCN(C)c1ccc(NC(=O)c2oc3c(F)cccc3c2C)cn1 [Example 82, 7-Fluoro-3-methyl-benzofuran-2-carboxylic acid {6-[(2-methoxy-ethyl)-methyl-amino]pyridin-3-yl}-amide]  0.43 µM
